Values quoted from earlier work in patent US6994842B2, “Aerogel powder therapeutic agents” (Aspen Aerogels, Inc., priority 2000, dated 2006).

Structure (SMILES)	solubility in water	solubility in supercritical carbon dioxide (supercritical carbon dioxide)
CCC(=O)C(CC(C)N(C)C)(c1ccccc1)c1ccccc1 (stereo not drawn) [Methadone]	12 g/100 mL	
O=C1CC[C@@]2(O)[C@H]3Cc4ccc(O)c5c4[C@@]2(CCN3CC2CC2)[C@H]1O5 [free base Naltrexone, Naltrexone]	not that soluble	highly soluble
